Experimental data reported in ChEMBL document CHEMBL5532738, “Chiral Me-2-arachidonoyl Glycerols: The First Potent Endocannabinoid Glyceride Templates with Stability to COX-2” (ACS Med Chem Lett, 2024).

How the values were obtained:
Type in all cases: functional, cell-based
[1] = target: Cannabinoid receptor 2 (Mus musculus, UniProt P47936); assay: Agonist activity at mouse CB2 receptor stably expressed in HEK293 cells assessed as inhibition of forskolin-stimulated cAMP accumulation incubated for 5 mins by Lance Ultra cAMP assay
Sequence of Cannabinoid receptor 2 (P47936 whole entry): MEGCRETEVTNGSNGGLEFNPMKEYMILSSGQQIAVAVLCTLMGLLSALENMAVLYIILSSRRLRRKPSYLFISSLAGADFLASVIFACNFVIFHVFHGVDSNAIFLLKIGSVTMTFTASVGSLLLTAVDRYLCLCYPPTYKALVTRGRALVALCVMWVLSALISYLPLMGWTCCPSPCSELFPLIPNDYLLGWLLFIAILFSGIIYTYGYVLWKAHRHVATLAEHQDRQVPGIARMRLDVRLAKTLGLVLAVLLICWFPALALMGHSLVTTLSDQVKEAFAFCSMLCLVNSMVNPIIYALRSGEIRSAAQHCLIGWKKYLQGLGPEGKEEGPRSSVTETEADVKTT

[2] = target: Cannabinoid receptor 1 (Rattus norvegicus, UniProt P20272); assay: Agonist activity at rat CB1 receptor stably expressed in HEK293 cells assessed as inhibition of forskolin-stimulated cAMP accumulation incubated for 5 mins by Lance Ultra cAMP assay
Sequence of Cannabinoid receptor 1 (P20272 whole entry): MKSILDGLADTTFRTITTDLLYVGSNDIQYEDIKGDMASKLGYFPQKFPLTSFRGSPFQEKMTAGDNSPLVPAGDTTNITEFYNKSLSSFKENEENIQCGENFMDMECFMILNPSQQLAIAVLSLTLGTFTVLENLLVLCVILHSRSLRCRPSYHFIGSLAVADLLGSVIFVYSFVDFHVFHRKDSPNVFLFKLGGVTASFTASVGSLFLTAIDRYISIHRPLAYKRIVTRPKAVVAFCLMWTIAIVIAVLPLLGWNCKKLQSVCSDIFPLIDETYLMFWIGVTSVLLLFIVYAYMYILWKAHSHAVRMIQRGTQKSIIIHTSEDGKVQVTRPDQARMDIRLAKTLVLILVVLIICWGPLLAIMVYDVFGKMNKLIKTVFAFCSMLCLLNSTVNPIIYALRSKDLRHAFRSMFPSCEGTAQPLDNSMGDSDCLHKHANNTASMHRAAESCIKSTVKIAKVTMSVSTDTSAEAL

[3] = target: Cannabinoid receptor 2 (Mus musculus) (UniProt P47936); assay: Agonist activity at mouse CB2 receptor stably expressed in HEK293 cells assessed as inhibition of forskolin-stimulated cAMP accumulation incubated for 5 mins by Lance Ultra cAMP assay relative to control
Sequence of Cannabinoid receptor 2 (Mus musculus) (P47936 whole entry): as the sequence (P47936 whole entry) above

[4] = target: Cannabinoid receptor 1 (Rattus norvegicus) (UniProt P20272); assay: Agonist activity at rat CB1 receptor stably expressed in HEK293 cells assessed as inhibition of forskolin-stimulated cAMP accumulation incubated for 5 mins by Lance Ultra cAMP assay relative to control; settings: filed as agonist
Sequence of Cannabinoid receptor 1 (Rattus norvegicus) (P20272 whole entry): as the sequence (P20272 whole entry) above

With `CCCCC/C=C\[C@@H](C)/C=C\C/C=C\C/C=C\CCCC(=O)OC(CO)CO` the EC50 [1] was 50 nM, the EC50 [2] was 7 nM and the Emax ([3]; filed as agonist) was 42.8%. The Emax [4] was 51.6%.

In the case of `CCCCC/C=C\C/C=C\C/C=C\[C@@H](C)/C=C\CCCC(=O)OC(CO)CO`, the EC50 [2] is reported as 34.6 nM, the Emax [3] is reported as < 1% and the Emax [4] is reported as 74.8%.

`CCCCC/C=C\C/C=C\C/C=C\C/C=C\CCCC(=O)OC(CO)CO` [2-ARACHIDONOYLGLYCEROL] showed an EC50 [1] of 18 nM, an Emax [3] of 35.2% and an Emax [4] of 47.7%.

For `CCCCC/C=C\C/C=C\C/C=C\[C@H](C)/C=C\CCCC(=O)OC(CO)CO`, the EC50 [1] was 6 nM, the EC50 [2] was 23.1 nM and the Emax [3] was 24.6%. The Emax [4] was 48.7%.

For `CCCCCCC(C)(C)c1ccc([C@@H]2C[C@H](O)CC[C@H]2CCCO)c(O)c1` [CP-55940], the EC50 [1] was 7 nM, the Emax ([3]; filed as agonist) was 54.4% and the Emax [4] was 67.1%.

Molecule `CCCCC/C=C\[C@H](C)/C=C\C/C=C\C/C=C\CCCC(=O)OC(CO)CO` has an EC50 [1] of 53 nM, an EC50 [2] of 17 nM and an Emax ([3]; filed as agonist) of 50.1%. For the same molecule, the Emax [4] was 51.2%.
